Assay results published in publication PMC9851200, “Multiparameter phenotypic screening for endogenous TFEB and TFE3 translocation identifies novel chemical series modulating lysosome function” (Autophagy, 2022).
Entries after “also recorded” stand apart in the source; their conditions may differ.

How the values were obtained:
endogenous TFEB = experiment: TFEB nuclear translocation, immunocytochemistry high-content imaging; type: cell-based; details: for TFEB %: PKIS2 primary screening
endogenous TFE3 = experiment: TFE3 nuclear translocation, immunocytochemistry high-content imaging; type: cell-based; details: for TFE3 %: PKIS2 primary screening
SH-SY5Y cells [1] = experiment: Chemotype enrichment analysis of PKIS2 primary screen hit categories; details: PKIS2 primary screening, hit category
SH-SY5Y cells [2] = details: for DQ Intensity / DQ Spot: PKIS2 primary screening; for DQ Intensity: DQ Red BSA intensity; for DQ Spot: DQ Red BSA spot count
From the text: The PKIS2 Library was supplied by The Structural Genomics Consortium at the University of North Carolina at Chapel Hill.

SH-SY5Y cells [3] = experiment: AK (adenylate kinase) release ToxiLight cytotoxicity assay; details: for AK: PKIS2 primary screening
Method: Total cell lysis with 5 µL 5% Triton-X 100 (Sigma-Aldrich, T8787) is used as a positive control for the assay and toxicity is expressed as a percentage of luminescence under DMSO conditions.

SH-SY5Y cells [4] = experiment: Nuclear count from microscopy images (cellular growth and toxicity); details: PKIS2 primary screening

Row | Structure (SMILES) | TFEB % (endogenous TFEB) [%] | TFE3 % (endogenous TFE3) [%] | Outcome (SH-SY5Y cells [1]) | DQ Intensity (SH-SY5Y cells [2]) | DQ Spot (SH-SY5Y cells [2]) | AK (SH-SY5Y cells [3]) | Nuclear Count (SH-SY5Y cells [4]) | TFEB translocation (in words) (endogenous TFEB; SH-SY5Y, 24 h treatment) | TFE3 translocation (in words) (endogenous TFE3; SH-SY5Y, 24 h treatment) | DQ Red BSA fluorescence intensity (in words) (SH-SY5Y cells [2]; SH-SY5Y, 24 h treatment) | DQ Red BSA spot count / active lysosome count (in words) (SH-SY5Y cells [2]; SH-SY5Y, 24 h treatment) | Cellular toxicity (AK release and nuclear count, in words) (SH-SY5Y cells [3]; SH-SY5Y, 24 h treatment)
1 | Cl.Cn1ccc(-c2cccc(Nc3ccnc4cc(-c5nccs5)ccc34)c2)n1 [UNC10225141A] | 12.07 | 26.05 | TOXIC | 161.91 | 66.27 | 174.83 | 43.03 | – | – | – | – | –
2 | COc1cc2nccc(Nc3cccc(Oc4ccccc4)c3)c2cc1OC.Cl [UNC10225170A] | 18.56 | 29.93 | TFEB/TFE3 | 93.52 | 79.85 | 71.46 | 91.34 | – | – | – | – | –
3 | Cl.Cl.NC(CNC(=O)c1cc(Br)c(-c2ccnc3[nH]ccc23)s1)c1ccccc1 (centres unmarked) [UNC10225176A] | 17.27 | 37.70 | TFEB/3 + DQ Int | 298.60 | 72.64 | 110.45 | 58.33 | – | – | – | – | –
4 | Cc1ccc(C(=O)Nc2ccc(Nc3ccnc4cc(-c5ccccn5)ccc34)cc2O)cc1.Cl [UNC10225182A] | 30.37 | 92.07 | LYSO TOXIC | 19.25 | 15.81 | 82.72 | 71.22 | – | – | – | – | –
5 | Fc1cc(Cl)ccc1Nc1ccnc2cc(I)ccc12 [UNC10225189A] | 3.86 | 9.39 | LYSO TOXIC | 39.14 | 61.91 | 112.41 | 145.49 | – | – | – | – | –
6 | c1ccc(Oc2ccc(Nc3ccnc4ccc(-c5ccccn5)cc34)cc2)cc1 [UNC10225215A] | 9.01 | 13.98 | LYSO TOXIC | 94.87 | 78.82 | 106.19 | 111.99 | – | – | – | – | –
7 | CN1C(=O)C(Nc2ccccc2)=C(c2ccccc2)C1=O [UNC10225242A] | 6.14 | 13.56 | TOXIC | 102.22 | 99.91 | 287.85 | 117.96 | – | – | – | – | –
8 | Cl.Cl.NC[C@H](CC1CCCCC1)NC(=O)c1cc(Br)c(-c2ccnc3[nH]ccc23)s1 [UNC10225276A] | 12.93 | 33.43 | TFEB/3 + DQ Int | 221.52 | 71.17 | 108.11 | 101.96 | – | – | – | – | –
9 | Fc1cc(Cl)ccc1Nc1ccnc2cc(-c3ccc(CN4CCSCC4)o3)ccc12 [UNC10225290A] | 9.12 | 15.63 | LYSO TOXIC | 59.38 | 53.95 | 104.94 | 127.72 | – | – | – | – | –
10 | Nc1nc(-c2cccnc2)c(-c2ccnc3ccccc23)s1 [UNC10225309A] | 13.96 | 14.98 | DQ and TFEB | 115.27 | 134.42 | 67.30 | 71.32 | – | – | – | – | –
11 | Cc1cccc2c(-c3ccncc3)c(-c3ccc(F)cc3)nn12.Cl [UNC10225316A] | 5.61 | 21.03 | TFE3 | 71.88 | 91.98 | 93.04 | 85.13 | – | – | – | – | –
12 | Fc1cccc(COc2ccc(Nc3ncnc4nn5ccccc5c34)cc2Cl)c1 [UNC10225319A] | 3.13 | 21.26 | TFE3 + DQ | 134.45 | 139.92 | 110.07 | 77.83 | – | – | – | – | –
13 | COc1ccc(-c2nc3n(c2-c2ccncc2)CCC3)cc1 [UNC10225334A] | 5.64 | 11.25 | DQ Only | 120.06 | 119.57 | 77.50 | 82.13 | – | – | – | – | –
14 | c1ccc(-c2ccnc3[nH]ccc23)cc1 [UNC10225337A] | 6.67 | 8.32 | TOXIC | 103.32 | 96.87 | 289.20 | 120.86 | – | – | – | – | –
15 | Cl.c1ccc(-c2ccc3c(Nc4ccc5[nH]ccc5c4)ccnc3c2)nc1 [UNC10225345A] | 8.10 | 38.32 | TOXIC | 44.66 | 42.49 | 157.00 | 89.15 | – | – | – | – | –
16 | CC(C)(C)c1ccc2nccc(Nc3cccc(O)c3)c2c1 [UNC10225361A] | 10.76 | 26.88 | LYSO TOXIC | 97.55 | 54.23 | 101.00 | 71.73 | – | – | – | – | –
17 | CC(=O)Nc1ccc(COc2ccc(Nc3ccnc4cc(-c5ccccn5)ccc34)cc2)cc1.Cl [UNC10225390A] | 19.19 | 50.24 | LYSO TOXIC | 42.39 | 42.67 | 71.40 | 89.28 | – | – | – | – | –
18 | CN(C)CCOc1ccc(-c2cc(-c3ccc(Cl)c(O)c3)c(-c3ccncc3)[nH]2)cc1.Cl.Cl [UNC10225395A] | 15.65 | 46.41 | LYSO TOXIC | 71.39 | 40.46 | 117.96 | 86.70 | – | – | – | – | –
19 | COc1ccc(C[C@@H](CN)NC(=O)c2cc(Br)c(-c3ccnc4[nH]ccc34)s2)cc1.Cl.Cl [UNC10225412A, reference compound] | 17.53 | 22.21 | TOXIC | 276.55 | 119.63 | 302.26 | 99.32 | translocation of TFEB and TFE3 | strong TFE3 translocation; also recorded: translocation of TFEB and TFE3 | increase in DQ Red BSA fluorescence intensity | small reduction in puncta count | no toxicity; also recorded: without cellular toxicity
20 | O=C(c1ccc(-c2cc(-c3c[nH]nc3-c3ccccn3)ccn2)cc1)N1CCOCC1 [UNC10225421A] | 4.79 | 13.41 | DQ Only | 150.15 | 98.06 | 76.85 | 121.31 | – | – | – | – | –
21 | FC(F)(F)c1ccc(-c2ncn(CCCN3CCOCC3)c2-c2ccncc2)cc1 [UNC10225425A] | 5.42 | 9.69 | LYSO TOXIC | 74.41 | 77.10 | 109.44 | 88.34 | – | – | – | – | –
22 | CN(C)Cc1ccc(-c2ccc3c(Nc4ccc(Oc5ccccn5)cc4)ccnc3c2)o1 [UNC10225428A] | 28.26 | 34.27 | LYSO TOXIC | 85.61 | 47.88 | 81.74 | 92.33 | – | – | – | – | –
23 | COc1ccc(-c2oc3ncnc(N)c3c2-c2ccc(OC)cc2)cc1 [UNC10225431A] | 4.87 | 9.25 | DQ Only | 144.39 | 120.26 | 79.67 | 51.87 | – | – | – | – | –
24 | Cc1ccc(C(=O)Nc2ccc(Nc3ccnc4cc(-c5nccs5)ccc34)cc2O)cc1.Cl [UNC10225432A] | 8.56 | 56.52 | LYSO TOXIC | 38.26 | 36.88 | 74.29 | 89.90 | – | – | – | – | –
25 | CCNCC(Cc1ccccc1)NC(=O)c1cc(Br)c(-c2ccnc3[nH]ccc23)s1.Cl.Cl (centres unmarked) [UNC10225436A] | 20.72 | 35.73 | DQ / TFEB/TFE3 | 185.61 | 102.66 | 108.80 | 80.17 | – | – | – | – | –
26 | COc1cccc(-c2cc(-c3c[nH]nc3-c3ccccn3)ccn2)c1 [UNC10225448A] | 6.19 | 7.93 | LYSO TOXIC | 60.35 | 69.14 | 109.46 | 116.22 | – | – | – | – | –
27 | CN(C)S(=O)(=O)c1cc(-c2ccc3nccc(-c4cccc(S(N)(=O)=O)c4)c3c2)cnc1N [UNC10225457A] | 2.30 | 3.13 | LYSO TOXIC | 100.41 | 77.18 | 74.17 | 78.66 | – | – | – | – | –
28 | Cl.Oc1cccc(Nc2ccnc3cc(-c4ccncc4)ccc23)c1 [UNC10225467A] | 5.92 | 10.65 | LYSO TOXIC | 34.95 | 51.42 | 125.78 | 88.58 | – | – | – | – | –
29 | Cc1ccc(O)cc1Nc1ccnc2ccc(C(C)(C)C)cc12 [UNC10225479A] | 23.46 | 19.57 | LYSO TOXIC | 91.49 | 60.27 | 75.82 | 78.69 | – | – | – | – | –
30 | COc1cc2nccc(Nc3ccc(Oc4ccccc4)cc3)c2cc1OC.Cl [UNC10225483A] | 23.88 | 50.12 | LYSO TOXIC | 58.49 | 52.29 | 74.22 | 95.56 | – | – | – | – | –
